Source: US20070167509A1, “Use of phenserine and analogs to treat behavioral problems and improve trainability” (priority 2005, published 2007)

Legend:
Format in all cases: in vivo
[1] = system: aged dogs; assay: CP-118,954 study of DNMP performance, counter-balanced within-subject design
[2] = system: middle-aged beagle dogs; assay: delayed-non-matching-to-sample task (DNMS), recognition memory; settings: 0.5 mg/kg dose
Procedure: The present study assessed the effects of a 0.5 mg/kg dose of phenserine in middle-aged dogs tested on a recognition memory task.
Six middle-aged beagle dogs (4 female and 2 male) served as subjects. Dogs were divided equally into 2 groups matched for performance on their most recent 10 sessions on the delayed-non-matching-to-sample task (DNMS; (Callahan et al., 2000). One group was administered phenserine (0.5 mg/kg) via capsule in a meatball and the second group served as control. Animals were tested one-hour after drug administration and were tested on a total of 20 test sessions.
To examine the effects of phenserine on DNMS performance, mean performance over groups of five test sessions was analyzed (see e.g., FIG. 1).

[3] = system: senior beagle dogs; assay: relearning of the delayed-non-matching-to-position task (DNMP); settings: N=4
Procedure: Five male and two female senior beagle dogs (M+S.D.=14.60+1.46 years) served as subjects (Table 1). Dogs were divided into two groups matched on their most recent DNMP performance; the first group (N=4) was administered phenserine (0.5 mg/kg) via capsule in a meatball and the second group (N=3) was administered a placebo meatball. Dogs received a five-day wash-in period prior to study initiation and were administered their respective treatments 1-hour prior to DNMP testing. Dogs were trained initially on the DNMP using a 5-s delay until a 2-stage criterion was passed. The first stage required animals to achieve a score of 11/12 on one day, a score of 10/12 over two consecutive days, or a score of 29/36 over three consecutive days. Subsequently, the dogs were required to achieve a score of 26/36 over the following three days to pass the second stage.

[4] = system: senior beagle dogs; assay: variable-delay DNMP under scopolamine / saline challenge; settings: scopolamine 15 μg/kg SC, 20-s (p=0.038) and 80-s (p=0.082) delays
Procedure: Following relearning of the DNMP, dogs were tested on a variable-delay paradigm in which delays of 20 and 80 s were used. The delays occurred equally among the trials in a daily test session. We have previously shown that the 15-μg/kg dose selectively impairs DNMP performance (Araujo et al., 2004a). The dogs were first divided into two groups, one that was administered phenserine and the other received a placebo control. All subjects were given a 5-day stabilization period and then tested under scopolamine (15 μg/kg, SC) and saline (SC), administered 45 min prior to testing, over two test days separated by a treatment washout day. One day following the second treatment day, animals were removed from phenserine or placebo treatments and re-tested on the stabilization days and under scopolamine and saline treatment as indicated above.

SMILES: O=C1Cc2cc3c(CCC4CCN(Cc5ccccc5)CC4)noc3cc2N1 [CP-118,954]
- DNMP performance [1]: no significant improvement

SMILES: CN1CC[C@@]2(C)c3cc(OC(=O)Nc4ccccc4)ccc3N(C)[C@@H]12 [phenserine, (−)-phenylcarbamoyleseroline]
- adverse effects [2]: No obvious adverse effects
- mean errors to relearn the DNMP (M+SEM) ([3]; 0.5 mg/kg via capsule 1 hour prior to testing, 5-s delay, placebo 14.33+6.98): 5.25+0.85 errors
- fewer errors compared to the most previous relearning rates (M+SEM) ([3]; 0.5 mg/kg, placebo group showed more errors (6.33+9.53)): 5.00+4.51 errors

SMILES: CN1[C@@H]2C[C@@H](OC(=O)[C@H](CO)c3ccccc3)C[C@H]1[C@@H]1O[C@@H]12 [scopolamine]
- DNMP performance of the placebo group after treatment with scopolamine [4]: performance deficits
